For orientation: inhibition means the relative decrease from the control value, in per cent. What is called IC50 is the concentration needed to halve the response being measured.

Molecules are shown by their SMILES.

Data on 24 molecules can be found in patent US7196110B2, “N-substituted tricyclic 3-aminopyrazoles as inhibitors for the treatment of cell proliferative disorders” (Janssen Phamaceutica N.V., priority 2002, dated 2007).

The target of the experiment is T1, PDGF-receptor beta enzyme comprising the tyrosine kinase domain (Homo sapiens, UniProt P09619).
T1 construct: from amino acid 545 to 1106 of GenBank Access NO: AAA36427
The experiment in a line: Inhibition of PDGF-receptor kinase activity (cell-free, PLC1 peptide, 33P Flashplate). The experiment is classed as biochemical. To be noted: PDGF-R kinase activity; for inhibition at 10 µM: compound at 10 uM, read-out: Percent Inhibition @ 10 uM; for IC50: read-out: IC50. In outline: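 Recombinant kinase domain (aa 545–1106) phosphorylated a biotinylated PLC1 peptide with 5 μM ATP plus 33P-γ-ATP, in Tris pH 8, MgCl2, Na3VO4 and 1 mM DTT, for 60 min at 30 °C. Retained 33P was counted after washing. IC50 is the concentration halving activity versus no-inhibitor reactions.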

T1 sequence (P09619 545-1106): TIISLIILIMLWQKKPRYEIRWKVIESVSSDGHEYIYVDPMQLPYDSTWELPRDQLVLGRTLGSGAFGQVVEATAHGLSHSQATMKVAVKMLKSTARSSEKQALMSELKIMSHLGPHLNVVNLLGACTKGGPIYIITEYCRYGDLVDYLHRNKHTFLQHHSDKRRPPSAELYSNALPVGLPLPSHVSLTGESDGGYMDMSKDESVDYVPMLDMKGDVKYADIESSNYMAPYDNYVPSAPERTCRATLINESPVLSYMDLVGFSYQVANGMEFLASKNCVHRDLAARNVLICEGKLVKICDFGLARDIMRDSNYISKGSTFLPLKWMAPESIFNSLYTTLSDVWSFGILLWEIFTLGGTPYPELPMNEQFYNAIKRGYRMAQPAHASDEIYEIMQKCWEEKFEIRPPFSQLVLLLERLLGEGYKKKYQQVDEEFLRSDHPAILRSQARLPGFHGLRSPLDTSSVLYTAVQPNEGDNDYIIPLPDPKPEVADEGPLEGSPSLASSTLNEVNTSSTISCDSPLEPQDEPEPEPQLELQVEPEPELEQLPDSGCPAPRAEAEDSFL

Turning to `CCc1ccccc1Nc1[nH]nc2c1Cc1cc(OC)c(OC)cc1-2` [Compound 58, (6,7-Dimethoxy-2,4-dihydro-indeno[1,2-c]pyrazol-3-yl)-(2-ethyl-phenyl)-amine], the inhibition at 10 µM was 40% and the IC50 was 8520 nM.
For the molecule `CCOc1cc2c(cc1OCCCO)-c1n[nH]c(Nc3cccc(Cl)c3)c1C2` [Compound 367, 3-[3-(3-Chloro-phenylamino)-6-ethoxy-2,4-dihydro-indeno[1,2-c]pyrazol-7-yloxy]-propan-1-ol], the inhibition at 10 µM came to 97% and the IC50 came out at 8.14 nM.
On to `COc1cccc(Nc2[nH]nc3c2Cc2cc(N4CCN(C)CC4)ccc2-3)c1` [Compound 123, (3-Methoxy-phenyl)-[6-(4-methyl-piperazin-1-yl)-2,4-dihydro-indeno[1,2-c]pyrazol-3-yl]-amine], for which the inhibition at 10 µM stood at 87% and the IC50 stood at 228 nM.
Taken in the same sequence, the figures for `COc1cc2c(c(NC(C)=O)c1OC)Cc1c-2n[nH]c1Nc1cccc(F)c1` [Compound 557, N-[3-(3-Fluoro-phenylamino)-6,7-dimethoxy-2,4-dihydro-indeno[1,2-c]pyrazol-5-yl]-acetamide] were 102% and 32.5 nM.
For `OCCCOc1cc2c(cc1OCCCO)-c1n[nH]c(Nc3cccnc3)c1C2` [Compound 372, 3-[7-(3-Hydroxy-propoxy)-3-(pyridin-3-ylamino)-2,4-dihydro-indeno[1,2-c]pyrazol-6-yloxy]-propan-1-ol] the same measures were 100% and 15.5 nM.
As for `COc1cccc(Nc2[nH]nc3c2C(C)c2cc(OC(C)C)c(OC(C)C)cc2-3)c1` (stereo not shown) [Compound 355, (6,7-Diisopropoxy-4-methyl-2,4-dihydro-indeno[1,2-c]pyrazol-3-yl)-(3-methoxy-phenyl)-amine], the inhibition at 10 µM stood at 85% and the IC50 stood at 1030 nM.
In the case of `COc1ccc(C(=O)n2nc(Nc3cccc(F)c3)c3c2-c2cc(OC)c(OC)cc2C3)cc1` [Compound 458, [3-(3-Fluoro-phenylamino)-6,7-dimethoxy-4H-indeno[1,2-c]pyrazol-1-yl]-(4-methoxy-phenyl)-methanone], the inhibition at 10 µM came to 70.5% and the concentration for half-maximal inhibition (IC50) is 7000 nM.
In the case of `COc1cc2c(cc1OC)C(C)(C)c1c-2n[nH]c1Nc1cccc(Br)c1` [Compound 485, (3-Bromo-phenyl)-(6,7-dimethoxy-4,4-dimethyl-2,4-dihydro-indeno[1,2-c]pyrazol-3-yl)-amine], the inhibition at 10 µM amounted to 32% and the concentration for half-maximal inhibition (IC50) amounted to 59000 nM.
As to `COc1cc2c(cc1OCC(O)CN1CCCC1)Cc1c-2n[nH]c1NCc1ccccc1F` (stereo not shown) [Compound 397, 1-[3-(2-Fluoro-benzylamino)-7-methoxy-2,4-dihydro-indeno[1,2-c]pyrazol-6-yloxy]-3-pyrrolidin-1-yl-propan-2-ol], the inhibition at 10 µM is 92% and the concentration for half-maximal inhibition (IC50) was 7.7 nM.
Consider `COc1cc2c(cc1OC)-c1nn(CCO)c(Nc3cccc(F)c3)c1C2` [Compound 573, 2-[3-(3-Fluoro-phenylamino)-6,7-dimethoxy-4H-indeno[1,2-c]pyrazol-2-yl]-ethanol], for which the inhibition at 10 µM worked out at 52%.
In the case of `COc1ccc(OC)c(CNc2[nH]nc3c2Cc2cc(OC)c(OC)cc2-3)c1` [Compound 274, (2,5-Dimethoxy-benzyl)-(6,7-dimethoxy-2,4-dihydro-indeno[1,2-c]pyrazol-3-yl)-amine], the inhibition at 10 µM was found to be 57.5% and the IC50 was 2610 nM.
On to `COc1cc2c(cc1OCc1ccccc1)Cc1c-2n[nH]c1Nc1cccc(F)c1` [Compound 291, (6-Benzyloxy-7-methoxy-2,4-dihydro-indeno[1,2-c]pyrazol-3-yl)-(3-fluoro-phenyl)-amine], for which the inhibition at 10 µM is 95% and the IC50 came to 205 nM.
Consider `COc1cccc(Nc2n[nH]c3c2Cc2c-3cc(OC)c3oc(C)nc23)c1` [Compound 560, (4-Methoxy-2-methyl-6,9-dihydro-3-oxa-1,6,7-triaza-cyclopenta[b]-as-indacen-8-yl)-(3-methoxy-phenyl)-amine], for which the inhibition at 10 µM is 102% and the IC50 was determined as 24.7 nM.
For `COc1ccc2c(c1)Cc1c-2n[nH]c1Nc1ccc(OC(F)(F)F)cc1` [Compound 88, (6-Methoxy-2,4-dihydro-indeno[1,2-c]pyrazol-3-yl)-(4-trifluoromethoxy-phenyl)-amine], the inhibition at 10 µM worked out at 42% and the half-maximal inhibitory concentration (IC50) was determined as 20800 nM.
For the molecule `OCCCOc1cccc2c1Cc1c-2n[nH]c1NCc1ccccc1F` [Compound 444, 3-[3-(2-Fluoro-benzylamino)-2,4-dihydro-indeno[1,2-c]pyrazol-5-yloxy]-propan-1-ol], the inhibition at 10 µM turned out to be 79.5% and the IC50 is 518 nM.
On to `COc1cc2c(cc1OCC(O)CO)Cc1c-2n[nH]c1Nc1cccc(Cl)c1` (stereo not shown) [Compound 259], for which the inhibition at 10 µM was found to be 93% and the IC50 worked out at 2.04 nM.
For `COc1cc2c(cc1OC)-c1c(c(Nc3cccc(F)c3)nn1C(=O)NCCN(C)C)C2` [Compound 517, 3-(3-Fluoro-phenylamino)-6,7-dimethoxy-4H-indeno[1,2-c]pyrazole-1-carboxylic acid (2-dimethylamino-ethyl)-amide] the same measures were 75.5% and 1790 nM.
On to `COc1cccc2c1Cc1c-2n[nH]c1Nc1cccc(C(F)(F)F)c1` [Compound 150, (5-Methoxy-2,4-dihydro-indeno[1,2-c]pyrazol-3-yl)-(3-trifluoromethyl-phenyl)-amine], for which the inhibition at 10 µM was determined as 85% and the IC50 stood at 823 nM.
`COC(=O)C(CC(C)C)NC(=O)n1nc2c(c1Nc1cccc(F)c1)Cc1cc(OC)c(OC)cc1-2` (stereo not shown) [Compound 412, 2-{[3-(3-Fluoro-phenylamino)-6,7-dimethoxy-4H-indeno[1,2-c]pyrazole-2-carbonyl]-amino}-4-methyl-pentanoic acid methyl ester]: the inhibition at 10 µM was 44% and the concentration for half-maximal inhibition (IC50) stood at 12700 nM.
For `COc1cc2c(cc1OC)-c1n[nH]c(Nc3ccc(C)cc3)c1C2` [Compound 33, (6,7-Dimethoxy-2,4-dihydro-indeno[1,2-c]pyrazol-3-yl)-p-tolyl-amine] the same measures were 59% and 1410 nM.
Taken in the same sequence, the figures for `COc1cc2c(cc1OC)-c1n[nH]c(NCc3cccc(OC)c3OC)c1C2` [Compound 322, (2,3-Dimethoxy-benzyl)-(6,7-dimethoxy-2,4-dihydro-indeno[1,2-c]pyrazol-3-yl)-amine] were 22% and 54.7 nM.
For `Fc1cccc(Nc2[nH]nc3c2Cc2cc(Cl)ccc2-3)c1` [Compound 191, (6-Chloro-2,4-dihydro-indeno[1,2-c]pyrazol-3-yl)-(3-fluoro-phenyl)-amine] the same measures were 88% and 68.6 nM.
In the case of `COc1cccc2c1Cc1c-2n[nH]c1Nc1cccc(OC(F)(F)F)c1` [Compound 149, (5-Methoxy-2,4-dihydro-indeno[1,2-c]pyrazol-3-yl)-(3-trifluoromethoxy-phenyl)-amine], the inhibition at 10 µM worked out at 27.5% and the IC50 came to 8370 nM.
For `COc1cc2c(cc1OC)-c1n[nH]c(Nc3ccc(Cl)cc3)c1C2` [Compound 5, (4-Chloro-phenyl)-(6,7-dimethoxy-2,4-dihydro-indeno[1,2-c]pyrazol-3-yl)-amine], the inhibition at 10 µM was determined as 91%.
